Laboratory results published in patent publication US12545653B2, “Compound as PPAR agonist and application thereof” (USA Elixiria Biotech Inc., priority 2019, dated 2026).

How the values were obtained:
[1] = test system: HEK 293T cells; assay: Inhibition of reactive oxygen species production (ROS-Glo H2O2 Assay); type: cell-based, human; details: 18 hours incubation
Protocol: Mitochondrial reactive oxygen species-induced oxidative stress is the source of many diseases. This experiment is used to test whether the carbonyl-containing cyclic compounds provided by the present invention can reduce the production of reactive oxygen species. HEK 293T cells were divided into 96-well plates at 5000 cells per well, cultured in a 37° C. carbon dioxide incubator with serum-free Duchenne's Modified Eagle's Medium (DMEM) for 6 hours, and then representatives for compounds listed in Table 2 and 3 were added to a final concentration of 0, 0.1, 0.3, 1, 3, 10, 30 micromole/L, with each concentration in triplicate. After 18 hours of incubation, the reactive oxygen species detection kit (ROS-Glo™ H2O2 Assay) and the GloMax microplate fluorescence detector (Promega, USA) were used to detect reactive oxygen species production. At the same time, pioglitazone was used as a control. The amount of fluorescence is positively related to the production of reactive oxygen species. A three-parameter Sigmoid function curve was used to fit the obtained data. The abscissa represents the logarithmic value of the concentration, and the ordinate represents the percentage of reduced reactive oxygen species production relative to those of the control. Then EC50 value was calculated with professional software.

[2] = test system: klotho gene promoter; assay: In vitro transcriptional activity of klotho gene (KL-Luc-3 luciferase cell line); type: cell-based; details: KL-Luc-3 cells; for EC50: 16 h, 16 hours incubation
Excerpt: The activities of these carbonyl-containing cyclic compounds are indicated by the increased expression of klotho gene. […] The present invention retains the DNA fragment of the klotho gene promoter, but replaces the DNA sequence of the coding region of the klotho gene with those of luciferase, so that the degree of activation of the klotho gene promoter and the expression of the klotho gene will be sensitively determined by detecting the luciferase luminescence signal.
Klotho is an important downstream gene of PPARγ pathway. The following experiments tested the properties of the compounds in Table 2 and 3 to activate the klotho gene in vitro. First, a stable cell line, KL-Luc, was constructed. The klotho gene carried by the cell line retained the DNA sequence of klotho gene promoter, but the coding sequence of the klotho gene was replaced with luciferase. KL-Luc fragment includes a promoter sequence of the klotho gene (a DNA region of 18,000 base pairs in length upstream of the transcription start site of the gene) and a luciferase-encoding sequence. To construct the KL-Luc sequence containing lentiviral vector, the KL-Luc fragment was cloned into the pDONR vector using BP recombinase, so that the target fragment had attL recombination sites on both sides. Then the KL-Luc fragment was transferred from the pDONR vector to a lentiviral vector (without exogenous promoter) pLenti6/BLOCK-IT-DEST. The constructed lentiviral vector of the target fragment was then transfected into HEK293T cells, and then the KL-Luc gene lentiviral expression vector and the […] were co-transfected into HEK293T cells to perform lentiviral packaging. The virus was harvested, and virus titer was calculated. And the lentivirus was used to infect target cells. The stable strains were screened by adding drugs. Finally, monoclonal cell lines were selected from polyclonal cells by cell cloning. The effective luciferase expression of each monoclonal cell line was determined by quantitative polymerase chain reaction (qPCR). The inventors chose a third monoclonal cell line (KL-Luc-3) to continue the compound screening. The compounds of interest were the compounds in Table 2 and 3. At the same time, rosiglitazone and pioglitazone were used as a control. KL-Luc-3 cells were divided into 96-well plates at 5000 cells in 80 microL per well, cultured in a 37° C. carbon dioxide incubator with serum-free Duchenne's Modified Eagle's Medium (DMEM) for 6 hours, and then the compounds were added to a final concentration of 0, 0.1, 0.3, 1, 3, 10, 30 micromole/L, with each concentration in triplicate. After 16 hours of incubation, the SteadyLite (PerkinElmer, Waltham, MA) and the GloMax Microplate Luminometer (Promega, USA) were used for quantitation of luciferase activity. The amount of luminescence emitted from each well is positively related to the transcriptional activity of the klotho promoter. A three-parameter Sigmoid function curve was used to fit the obtained data. The abscissa represents the logarithmic value of the concentration, and the ordinate represents the percentage of the activity relative to those of the control. […] In Statistical analysis, the coefficient of variation is used to measure the robustness and repeatability of the experiment. […] The difference is significant with P<0.05. EC50 is a parameter of its activity. The lower the EC50 value, the higher the activity of corresponding compound.

[3] = test system: db−/db− mice; assay: Diabetic peripheral neuropathy model, Von Frey threshold, sciatic nerve ROS and MDA; type: in vivo, mouse; details: in food 10 mg/kg body weight/day (pregabalin 30 mg/kg body weight/day); for level of MDA in the sciatic nerve after 10 week treatment / level of mitochondrial ROS in the sciatic nerve after 10 week treatment: compared with healthy control group; for mechanical pain threshold after 10 week treatment: compared with normal control group
Protocol: Male 5-6 week-old male db^−/db^− mice were used in the experiment, and their normoglycemic heterozygous littermates were used as controls. db^−/db^− is a commonly used type 2 diabetes animal model. The compounds was dissolved in DMSO and mixed into food pellets. The animals were given ad libitum access to the pellets, beginning from 8 to 9 weeks of age for 10 weeks. […] The method for detecting mice hindlimb hypersensitivity is performed using Von Frey filaments. […] The difference is significant with P<0.05. The increase of mitochondrial reactive oxygen species (ROS) in the sciatic nerve of mice, which in turn leads to the increase of intracellular malondialdehyde (MDA), is the etiology of this type of neuropathic pain. The efficacy of compound to treat the root cause of the disease was evaluated by measurement of the levels of MDA and mitochondrial ROS from the sciatic nerves.

[4] = test system: dIoN-CCI rat model of trigeminal neuropathic pain; details: in vivo
[5] = test system: MPTP-HCl Parkinson's disease model mice; assay: Parkinson's disease model (MPTP-HCl), beam traversal test; details: MPTP-HCl/probenecid mice, 5 mg/kg body weight intraperitoneal daily, 35 days
Protocol: Three month-old male wild type mice were used in the experiment. The treatment lasted for a total of 35 days. […] For all abovementioned groups, Motor skills were assessed on the 36th to 40th days after compound administration. Beam traversal test is a method commonly used in academia to detect movement coordination in animals with Parkinson's disease. […] The mice were first trained for 2 consecutive days, and taught to trained to traverse the length of the beam. On the day of the test, a mesh grid (1 cm squares) of corresponding width was placed over the beam surface leaving a ˜1 cm space between the grid and the beam surface. Animals were then videotaped while traversing the grid-surfaced beam for a total of five trials. An error was counted when, during a forward movement, a forelimb or hindlimb slipped through the grid. The number of errors made per step (referred to as “error per step scores”) was counted. An analysis of variance (ANOVA) and Dunnett post hoc comparison test are used to compare the significance of the differences between different groups of data. The difference is significant with P<0.05.

| SMILES | inhibition of active oxygen production (up to), compared to the DMSO control ([1]; 0-30 micromole/L) | EC50 [2] [µM] | induced transcriptional activity of klotho gene relative to pioglitazone [2] | induced transcriptional activity of klotho gene relative to rosiglitazone [2] [folds] | klotho EC50 as fraction of that of pioglitazone [2] | klotho EC50 as fraction of that of rosiglitazone [2] | level of MDA in the sciatic nerve after 10 week treatment [3] | level of mitochondrial ROS in the sciatic nerve after 10 week treatment [3] | mechanical pain threshold after 10 week treatment [3] | side effect at the time of administration [4] | number of errors per step in beam traversal test compared with disease control group [5] | EC50 ([1]; Homo sapiens, HEK-293T, 18 h) [µM] |
| --- | --- | --- | --- | --- | --- | --- | --- | --- | --- | --- | --- | --- |
| CCc1ccc(CC/C=C/c2ccc3c(c2)C(=O)CC3)cc1 [ELB00824, (E)-6-(4-(4-ethylphenyl)but-1-en-1-yl)-2,3-dihydro-1H-inden-1-one] | up to 45% | 1.5 | more than 66 folds | 6 | less than 1/67 | 1/6 | no difference | no difference | no difference | no side effect | – | – |
| CCc1ccc(CC/C=C/c2ccc3c(c2)OCCC3=O)cc1 [ELB001045, (E)-7-(4-(4-ethylphenyl)but-1-en-1-yl)chroman-4-one] | – | < 9.7 | – | – | – | – | reduced | reduced | significantly improved | – | significantly lower | – |
| CCc1ccc(CC/C=C/c2ccc3c(c2)C(=O)COC3)cc1 [ELB001046, (E)-6-(4-(4-ethylphenyl)but-1-en-1-yl)isochroman-4-one] | – | – | – | – | – | – | reduced | reduced | significantly improved | – | significantly lower | < 10 |
| CCc1ccc(OC/C=C/c2ccc3c(c2)C(=O)CC3)cc1 [ELB001115, (E)-6-(3-(4-ethylphenoxy)prop-1-en-1-yl)-2,3-dihydro-1H-inden-1-one] | – | < 9.7 | – | – | – | – | reduced | reduced | significantly improved | – | significantly lower | – |
| COc1ccc(CC/C=C/c2ccc3c(c2)C(=O)CC3)cc1 [ELB001116, (E)-6-(4-(4-methoxyphenyl)but-1-en-1-yl)-2,3-dihydro-1H-inden-1-one] | – | < 9.7 | – | – | – | – | no difference | no difference | no difference | – | significantly lower | – |
| CCc1ccc(CC/C=C/c2ccc3c(c2)C(=O)CC3)nc1 [ELB001125, (E)-6-(4-(5-ethylpyridin-2-yl)but-1-en-1-yl)-2,3-dihydro-1H-inden-1-one] | – | < 9.7 | – | – | – | – | reduced | reduced | significantly improved | – | significantly lower | – |
